# Results reported in patent publication US10246432B2, “4-(3-cyanophenyl)-6-pyridinylpyrimidine mGlu5 modulators” (Heptares Therapeutics Limited, priority 2013, dated 2019).
# Biological target: human mGlu5 receptor (Homo sapiens (Human), UniProt P41594)
# Test: [3H]-M-MPEP radioligand binding assay
# Settings: competition with [3H]-M-MPEP, membranes of HEK293 cells transfected with human mGlu5
# Description: Biological Methods Membrane Preparation
# cDNA encoding the human mGlu5 receptor was transfected into HEK293 cells using the transfection reagent Genejuice (Novagen). Forty-eight hours after transfection, cells were harvested and washed twice with ice cold phosphate-buffered saline. The pellet was re-suspended in ice-cold buffer containing 20 mM Tris-HCl, pH 7.4, 1 mM EDTA and homogenised with an Ultraturax for 30 s at maximum speed. The suspension was centrifuged (800×g for 5 min at 4° C.) and supernatant collected. Supernatant was centrifuged (40,000×g for 30 min at 4° C.). The resulting pellet was re-suspended and frozen at −80° C. before use. Protein concentration was determined using the BCA protein assay method (Merck Chemicals Ltd).
# [^3H]-M-MPEP Radioligand Binding Assay
# After thawing, membrane homogenates were re-suspended in the binding buffer (50 mM HEPES pH 7.5, 150 mM NaCl) to a final assay concentration of 2.5 μg protein per well. […] At the end of the incubation, membranes were filtered onto a 96-well GF/B filter pre-incubated with 0.1% polyethylenimine, with a Tomtec cell harvester and washed 5 times with 0.5 mL distilled water. Non-specific binding (NSB) was measured in the presence of 0.1 mM MPEP hydrochloride (Tocris bioscience, catalogue number 1212). Radioactivity on the filter was counted (1 min) on a microbeta counter after addition of 50 μL of scintillation fluid. […] IC50 values were derived from the inhibition curve and the equilibrium dissociation constant (Ki) values were calculated using the Cheng-Prussoff equation.
# human mGlu5 receptor, sequence (P41594 21-1212): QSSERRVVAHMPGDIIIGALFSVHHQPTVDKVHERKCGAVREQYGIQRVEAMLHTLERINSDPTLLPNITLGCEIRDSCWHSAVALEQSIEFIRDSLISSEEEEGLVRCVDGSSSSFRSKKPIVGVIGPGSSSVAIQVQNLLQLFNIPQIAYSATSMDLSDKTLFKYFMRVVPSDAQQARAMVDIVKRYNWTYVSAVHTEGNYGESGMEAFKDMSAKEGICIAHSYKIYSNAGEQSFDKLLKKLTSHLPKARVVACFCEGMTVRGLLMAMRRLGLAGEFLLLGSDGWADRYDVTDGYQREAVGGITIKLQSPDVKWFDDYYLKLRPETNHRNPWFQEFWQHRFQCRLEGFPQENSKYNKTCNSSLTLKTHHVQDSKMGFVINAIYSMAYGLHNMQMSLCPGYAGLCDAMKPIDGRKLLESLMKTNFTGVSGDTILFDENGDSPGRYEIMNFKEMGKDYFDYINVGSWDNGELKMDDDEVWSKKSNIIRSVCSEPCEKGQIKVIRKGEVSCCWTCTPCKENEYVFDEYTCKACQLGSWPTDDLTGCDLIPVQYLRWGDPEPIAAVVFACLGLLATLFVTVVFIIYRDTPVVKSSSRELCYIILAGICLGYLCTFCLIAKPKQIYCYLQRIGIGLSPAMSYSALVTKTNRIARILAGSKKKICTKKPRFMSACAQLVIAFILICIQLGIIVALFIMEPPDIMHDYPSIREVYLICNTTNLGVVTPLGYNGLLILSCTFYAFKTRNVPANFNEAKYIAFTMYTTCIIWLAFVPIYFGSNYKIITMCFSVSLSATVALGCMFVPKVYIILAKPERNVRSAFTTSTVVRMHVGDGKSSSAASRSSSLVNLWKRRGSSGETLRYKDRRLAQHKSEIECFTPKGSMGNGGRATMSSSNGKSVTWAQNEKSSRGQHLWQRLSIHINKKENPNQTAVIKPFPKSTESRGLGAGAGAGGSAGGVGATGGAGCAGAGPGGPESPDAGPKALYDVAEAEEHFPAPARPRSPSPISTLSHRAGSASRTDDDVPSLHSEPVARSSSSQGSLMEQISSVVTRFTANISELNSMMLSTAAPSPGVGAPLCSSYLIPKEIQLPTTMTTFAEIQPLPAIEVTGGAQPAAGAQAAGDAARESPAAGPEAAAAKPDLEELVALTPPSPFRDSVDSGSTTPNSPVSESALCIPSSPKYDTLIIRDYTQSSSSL
row,pKi avg,Compound
1,8.67,"Cc1ccc(-c2cc(-c3cc(C)cc(C#N)c3)ncn2)nc1 [Example 23, 3-methyl-5-[6-(5-methylpyridin-2-yl)pyrimidin-4-yl]benzonitrile]"
2,8.57,"COCc1cc(C#N)cc(-c2cc(-c3ccc(F)cn3)ncn2)c1 [Example 24, 3-[6-(5-fluoropyridin-2-yl)pyrimidin-4-yl]-5-(methoxymethyl)benzonitrile]"
3,8.37,"COc1cc(C#N)cc(-c2cc(-c3ccc(F)cn3)ncn2)c1 [Example 25, 3-[6-(5-fluoropyridin-2-yl)pyrimidin-4-yl]-5-methoxybenzonitrile]"

# Further lines, the compound ahead of its results:
row,Compound,pKi avg
1,"Cc1cc(C#N)cc(-c2cc(-c3ccccn3)ncn2)c1 [Example 4, 3-methyl-5-[6-(pyridin-2-yl)pyrimidin-4-yl]benzonitrile]",8.56
2,"N#Cc1cc(Cl)c(F)c(-c2ccnc(-n3cccn3)c2)c1 [Example 11, 3-chloro-4-fluoro-5-[2-(1H-pyrazol-1-yl)pyridin-4-yl]benzonitrile]",8.16
3,"N#Cc1cc(Cl)c(F)c(-c2cc(-n3cccn3)ccn2)c1 [Example 10, 3-chloro-4-fluoro-5-[4-(1H-pyrazol-1-yl)pyridin-2-yl]benzonitrile]",8.37
4,"N#Cc1cc(CF)cc(-c2cc(-n3cccn3)ncn2)c1 [Example 16, 3-(fluoromethyl)-5-[6-(1H-pyrazol-1-yl)pyrimidin-4-yl]benzonitrile]",8.17
5,"N#Cc1cc(Cl)c(F)c(-c2cc(-n3cc(F)cn3)ncn2)c1 [Example 12, 3-chloro-4-fluoro-5-[6-(4-fluoro-1H-pyrazol-1-yl)pyrimidin-4-yl]benzonitrile]",8.00
6,"N#Cc1cc(C#N)cc(-c2cc(-c3ccccn3)ncn2)c1 [Example 21, 5-[6-(pyridin-2-yl)pyrimidin-4-yl]benzene-1,3-dicarbonitrile]",7.98
7,"N#Cc1cc(Cl)cc(-c2cc(-c3ccncn3)ncn2)c1 [Example 6, 3-(4,4′-bipyrimidin-6-yl)-5-chlorobenzonitrile]",8.27

# Biological target: hippocampal mGlu5 receptors (Rattus norvegicus (Rat), UniProt P31424)
# Test: Ex vivo mGlu5 receptor occupancy
# Assay type: in vivo
# Settings: Sprague Dawley rats, 1-10 mg/kg po, one hour post-dose, hippocampal CA3 sections, [3H]-M-MPEP autoradiography, read-out: estimated ED50 (receptor occupancy)
# Description: Ex Vivo mGlu5 Receptor Occupancy
# One hour post-dose, animals were sacrificed and whole brains removed, rinsed and blot dried. A coronal block was cut containing the hippocampus and divided along the mid-line and rapidly frozen in isopentane for sectioning and autoradiography. Coronal half-brain sections were cut 20 μm thick, approximately 4 mm posterior to the bregma, to incorporate the hippocampal CA3 region. Three adjacent sections were mounted onto slides and incubated with 2 nM [^3H]-M-MPEP (total binding) or 2 nM [^3H]-M-MPEP and 10 μM fenobam (non-specific binding, Tocris bioscience, catalogue number 2386) for 10 min at room temperature. Binding was terminated by aspiration and washing with ice-cold assay buffer (4×5 min) and sections allowed to air dry. Levels of bound radioactivity in the sections were determined using a beta imager over a 16 h period. Occupancy was determined as mean specific binding with the vehicle treated control taken as 100%.
# hippocampal mGlu5 receptors, sequence (P31424 21-1203): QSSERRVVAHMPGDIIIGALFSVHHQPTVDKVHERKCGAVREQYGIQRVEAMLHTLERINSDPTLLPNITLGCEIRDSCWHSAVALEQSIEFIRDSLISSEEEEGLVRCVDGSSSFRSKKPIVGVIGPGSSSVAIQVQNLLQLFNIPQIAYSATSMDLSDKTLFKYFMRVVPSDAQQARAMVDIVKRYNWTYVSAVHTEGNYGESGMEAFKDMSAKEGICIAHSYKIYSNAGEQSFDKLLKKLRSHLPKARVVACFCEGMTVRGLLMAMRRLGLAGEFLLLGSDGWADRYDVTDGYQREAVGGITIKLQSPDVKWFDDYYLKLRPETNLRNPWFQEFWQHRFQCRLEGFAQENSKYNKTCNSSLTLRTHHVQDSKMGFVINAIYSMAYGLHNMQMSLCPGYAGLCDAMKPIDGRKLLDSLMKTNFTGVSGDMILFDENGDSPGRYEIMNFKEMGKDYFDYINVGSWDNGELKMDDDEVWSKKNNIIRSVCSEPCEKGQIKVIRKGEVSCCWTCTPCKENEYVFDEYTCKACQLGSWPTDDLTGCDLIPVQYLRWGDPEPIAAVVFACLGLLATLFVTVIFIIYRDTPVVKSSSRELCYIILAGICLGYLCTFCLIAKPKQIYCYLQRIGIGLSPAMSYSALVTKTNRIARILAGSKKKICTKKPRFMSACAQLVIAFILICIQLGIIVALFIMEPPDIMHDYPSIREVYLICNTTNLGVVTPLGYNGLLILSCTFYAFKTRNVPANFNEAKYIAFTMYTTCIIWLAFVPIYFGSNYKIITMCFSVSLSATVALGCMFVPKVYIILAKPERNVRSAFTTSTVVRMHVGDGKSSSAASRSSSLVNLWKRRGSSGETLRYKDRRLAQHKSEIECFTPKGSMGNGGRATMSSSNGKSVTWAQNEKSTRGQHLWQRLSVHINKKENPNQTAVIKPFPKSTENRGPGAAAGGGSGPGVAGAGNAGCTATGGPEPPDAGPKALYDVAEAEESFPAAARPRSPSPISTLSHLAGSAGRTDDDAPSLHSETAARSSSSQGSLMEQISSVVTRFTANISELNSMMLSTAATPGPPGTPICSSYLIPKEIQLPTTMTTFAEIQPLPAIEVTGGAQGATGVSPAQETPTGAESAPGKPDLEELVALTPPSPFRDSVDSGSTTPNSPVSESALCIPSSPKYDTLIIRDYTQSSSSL
row,ED50 [mg/kg],Compound
1,0.3,"N#Cc1cc(Cl)cc(-c2cc(-c3ccc(F)cn3)ncn2)c1 [Example 17, 3-chloro-5-[6-(5-fluoropyridin-2-yl)pyrimidin-4-yl]benzonitrile]"
2,2.9,"N#Cc1cc(C#N)cc(-c2cc(-c3ccc(F)cn3)ncn2)c1 [Example 18, 5-[6-(5-fluoropyridin-2-yl)pyrimidin-4-yl]benzene-1,3-dicarbonitrile]"
3,2.8,"N#Cc1cc(Cl)cc(-c2cc(-c3ccccn3)ncn2)c1 [Example 2, 3-chloro-5-[6-(pyridin-2-yl)pyrimidin-4-yl]benzonitrile]"

# System: Male CD-1 mice
# Test: In vivo efficacy test - mouse marble burying
# Settings: 10 and 30 mg/kg po versus vehicle group, dosed 30 min prior to test, one-way ANOVA with Dunnett's post-hoc test
# Text: In Vivo Efficacy Test—Marble Burying
row,Compound,number of marbles buried
1,"N#Cc1cc(Cl)cc(-c2cc(-c3ccc(F)cn3)ncn2)c1 [Example 17, 3-chloro-5-[6-(5-fluoropyridin-2-yl)pyrimidin-4-yl]benzonitrile]",statistically significant decrease
